{
  "source": "patent US20250075248A1",
  "about": "“SYSTEMS, METHODS, AND DEVICES FOR ANTIMICROBIAL SUSCEPTIBILITY TESTING” (Deepull Diagnostics S.L., priority 2022, published 2025)",
  "assay_type_in_all_cases": "cell-based",
  "key": {"[1]": {"tested_on": "Klebsiella pneumoniae ATCC13883", "experiment": "Microscopy-based AST (MIC) from spiked blood tube sample after lysis, enrichment and immunomagnetic separation", "procedure": "First, Streptavidin coated beads were washed and immobilized. […] The typical binding capacity per mg (100 μL) of the magnetic beads used is approximately 20 μg of biotinylated antibody. After the coating, some washes with a phosphate saline buffer containing 0.01% of BSA (w/v) (adjusted pH 7.4) were performed. Finally, beads were resuspended to the desired concentration for the application. The antibody used was a biotin Klebsiella Polyclonal Antibody (PA1-73177, Invitrogen) and the magnetic beads used were Dynabeads MyOne Streptavidin T1 (65601, Thermofisher Scientific).\nBlood samples were prepared from a single large blood pool from donors collected in 10 mL EDTA blood tubes which was spiked with the appropriate amount of bacteria (Klebsiella pneumoniae ATCC13883) depending on the target inoculum (around 100 CFU/10 mL). After the pool was spiked, 10 mL were transferred to a previously labelled 15 mL tube containing a lysing agent (700 μL of Isolator BC0507C, Oxoid) and an immiscible fluorocarbon oil (20 μL of Fluorinert™ FC-40 F9755, Sigma-Aldrich). To lyse and concentrate, samples were incubated for a short period of time (30 seconds) under rotatory movement at low speed (10 rpm) and centrifugated at 12.000 g force for 5 minutes with a fixed angle rotor. The supernatant of each sample was discarded until 500 μL used to prepare the matrix for the enrichment step. […]\nFor the immunomagnetic separation of the bacteria from the blood, 100 μL of antibody coated beads were added to each sample tube. […] These samples were also observed under an inverted fluorescence microscope in order to know the bacteria present in the sample and calculate the amount needed to perform the AST test, which was the next and last step in this end-to-end assay. 5 μL of each sample were transferred to a 384-well plate with a flat polystyrene film bottom and incubated with fluorescence dyes (SYBR Green and Propidium Iodide) during 10 min at room temperature in the dark. […]"}, "[2]": {"tested_on": "Klebsiella pneumoniae ATCC13883", "experiment": "Broth microdilution method MIC", "settings": "K. pneumoniae ATCC13883, read-out: MIC according to broth microdilution method"}, "[3]": {"tested_on": "Staphylococcus aureus susceptible (ATCC29213)", "experiment": "Microscopy-based AST (MIC) from liquid culture", "procedure": "(§1) The minimal inhibitory concentration was determined for two strains of Gram-positive bacteria Staphylococcus aureus, one susceptible (ATCC29213) and one resistant (ATCC43300) to erythromycin, according to embodiments described herein. […] Bacteria cultures were diluted in culture media (Mueller Hinton cation adjusted broth) and were incubated at a final concentration of 2×10^4 CFU/mL during 5 hours at 37° C. at different concentrations of […] in a final volume of 10 μL. S. aureus strain susceptible to erythromycin was tested at 1, 0.5, 0.25, 0.125, 0.06 and 0.03 mg/L, whereas resistant strain was tested at 4, 2, 1, 0.5, 0.25 and 0.125 mg/L of erythromycin. Three replicates were performed for each antibiotic concentration.\n(§2) Samples were analyzed at time 0 of incubation and after 5 hours incubation (with and without antibiotic). Samples were incubated with fluorescence dyes (SYBR Green and Propidium Iodide) during 10 minutes at room temperature in the dark. After dye incubation a sample of 1 μL was diluted with 4 μL of buffer (NaCl 0.9%) and transferred to a 384-well plate with flat polystyrene film bottom. The 384-well plate was centrifuged during 1 minute at 3000 g in a swinging-bucket movement and observed in an inverted fluorescence microscope. For each sample, a composite image covering the bottom of each well was constructed. Images were analyzed with a custom software to count bacteria, detect filamentous bacteria, counts red bacteria, and record the brightness of bacteria.\n(§3) Data obtained from images was used to perform a Graph either for S. aureus susceptible and resistant to erythromycin (FIGS. 25A and 25B, respectively)."}, "[4]": {"tested_on": "Staphylococcus aureus resistant (ATCC43300)", "experiment": "Microscopy-based AST (MIC) from liquid culture", "procedure": "as §1, §2, §3"}, "[5]": {"tested_on": "Staphylococcus aureus susceptible (ATCC29213)", "experiment": "Broth microdilution method MIC", "settings": "S. aureus ATCC29213"}, "[6]": {"tested_on": "Staphylococcus aureus resistant (ATCC43300)", "experiment": "Broth microdilution method MIC", "settings": "S. aureus ATCC43300"}, "[7]": {"tested_on": "Klebsiella pneumoniae (IHMA1977064)", "experiment": "Broth microdilution method MIC", "settings": "K. pneumoniae IHMA1977064, read-out: MIC according to broth microdilution method"}, "[8]": {"tested_on": "Klebsiella pneumoniae (IHMA1977064)", "experiment": "Microscopy-based AST (MIC) from liquid culture", "procedure": "The minimal inhibitory concentration was determined using embodiments disclosed herein for one strain of Gram-negative bacteria Klebsiella pneumoniae (IHMA1977064) with an MIC of 8 mg/L to meropenem according to the broth microdilution method. Bacteria was grown in liquid culture until an exponential phase in culture media. The cultures were diluted in culture media (Mueller Hinton cation adjusted broth) and was incubated at a final concentration of 2×10^4 CFU/mL during 5 hours at 37° C. at different concentrations of meropenem in a final volume of 10 μL. Meropenem concentrations tested were 32, 16, 8, 4, 2 and 1 mg/L […]. Three replicates were performed for each antibiotic concentration.\nSamples were analyzed at time 0 of incubation and after 5 hours incubation (with and without antibiotic). 5 μL of each sample were transferred to a 384-well plate with flat polystyrene film bottom and incubated with fluorescence dyes (SYBR Green and Propidium Iodide) during 10 minutes at room temperature in the dark. The 384-well plate was centrifuged during 1 minute at 3000 g in a swinging-bucket movement and observed in an inverted fluorescence microscope. For each sample, a composite image covering the bottom of each well was constructed. Images were analyzed with a custom software to count bacteria, detect filamentous bacteria, counts red bacteria, and record the brightness of bacteria. These images are illustrated in FIG. 24A.\nThis graph is illustrated in FIG. 24B."}, "[9]": {"tested_on": "Klebsiella pneumoniae (ATCC13883)", "experiment": "Microscopy-based AST (MIC) from liquid culture", "procedure": "Bacteria was grown in a liquid culture until an exponential phase in culture media. The cultures were diluted in culture media (Mueller Hinton cation adjusted broth) and was incubated at a final concentration of 2×10^4 CFU/mL during 5 hours at 37° C. at different concentrations of […] in a final volume of 10 μL. Gentamicin concentrations tested were 4, 2, 1, 0.5, 0.25 and 0.125 mg/L. Three replicates were performed for each antibiotic concentration.\nas §2, with “dye incubation,” for “dye incubation”, “bacteria. These images are illustrated in FIG. 23A” for “bacteria.”\nThis graph is illustrated in FIG. 23B."}, "[10]": {"tested_on": "Klebsiella pneumoniae ATCC13883", "experiment": "Microscopy-based AST (MIC) from spiked blood culture bottle after immunomagnetic separation", "procedure": "First, Streptavidin coated beads were washed and immobilized. The washing buffer and the immobilization process may be different depending on the application. […] The typical binding capacity per mg (100 μL) of magnetic beads used is approximately 20 μg of biotinylated antibody. After the coating, some washes were performed with a phosphate saline buffer containing 0.01% of BSA (w/v) (adjusted pH 7.4) and then beads were finally resuspended to the desired concentration for the application. The antibody used was a biotin Klebsiella Polyclonal Antibody (PA1-73177, Invitrogen) and the magnetic beads used were Dynabeads MyOne Streptavidin T1 (65601, Thermofisher Scientific).\nBlood samples were prepared from a previously mixed single large blood pool which was spiked with the appropriate amount of bacteria (Klebsiella pneumoniae ATCC13883) depending on the target inoculum (around 100 CFU). After the pool was spiked, 10 mL were transferred to a previously labelled blood culture system (442023, BD BACTEC™ Plus Aerobic/F) and mixed with an agitation platform (5 minutes at 150 rpm). […]\nThe immunomagnetic separation of the bacteria was performed using a 15 mL tube containing 5 mL of a matrix extracted from a blood culture bottle and 100 μL of beads coated with anti-K. pneumoniae antibodies. […] The samples were also observed under an inverted fluorescence microscope in order to determine the number of bacteria present in the sample and calculate the adjustment needed to perform the AST test. 5 μL of each sample were transferred to a 384-well plate with flat polystyrene film bottom and incubated with fluorescence dyes (SYBR Green and Propidium Iodide) during 10 minutes at room temperature in the dark. The 384-well plate was centrifuged during 1 minute at 3000 g in a swinging-bucket centrifuge and observed in an inverted fluorescence microscope. […] Images were analyzed with a custom software to determine the number of bacteria. […]\nSamples were analyzed at time 0 of incubation and after 5 h incubation (with and without antibiotic). […]"}},
  "data": [
    {"molecule": "O=C(O)c1cn(C2CC2)c2cc(N3CCNCC3)c(F)cc2c1=O", "note": "[ciprofloxacin, Ciprofloxacin]", "values": [
      {"measurement": "MIC", "setting": "[1]; Klebsiella pneumoniae, ATCC13883, 5 h", "value": 0.015, "unit": "µg/mL"},
      {"measurement": "bacterial growth after 5 hours incubation", "setting": "[1]; at 0.008 and 0.004 mg/L", "value": "growth"},
      {"measurement": "bacterial growth after 5 hours incubation", "setting": "[1]; at a concentration ≥0.015 mg/L", "value": "did not grow"},
      {"measurement": "MIC", "setting": "[2]", "value": 0.03, "unit": "µg/mL"}
    ]},
    {"molecule": "CC[C@H]1OC(=O)[C@H](C)[C@@H](O[C@H]2C[C@@](C)(OC)[C@@H](O)[C@H](C)O2)[C@H](C)[C@@H](O[C@@H]2O[C@H](C)C[C@H](N(C)C)[C@H]2O)[C@](C)(O)C[C@@H](C)C(=O)[C@H](C)[C@@H](O)[C@]1(C)O", "note": "[erythromycin, Erythromycin]", "values": [
      {"measurement": "MIC", "setting": "[3]; Staphylococcus aureus, S. aureus ATCC29213, 2×10^4 CFU/mL, 5 hours at 37° C., image analysis", "value": 0.25, "unit": "µg/mL"},
      {"measurement": "bacterial growth after 5 hours incubation", "setting": "[3]; at 0.125 mg/L", "value": "showed growth"},
      {"measurement": "bacterial growth after 5 hours incubation", "setting": "[3]; at a concentration ≥0.25 mg/L", "value": "did not grow"},
      {"measurement": "MIC", "setting": "[4]; Staphylococcus aureus, S. aureus ATCC43300, 2×10^4 CFU/mL, 5 hours at 37° C., highest concentration tested 4 mg/L", "value": "≥ 4", "unit": "µg/mL"},
      {"measurement": "bacterial growth after 5 hours incubation", "setting": "[4]; at 4 mg/L and lower concentrations", "value": "showed growth"},
      {"measurement": "MIC", "setting": "[5]", "value": "0.25 to 0.5", "unit": "µg/mL"},
      {"measurement": "MIC", "setting": "[6]", "value": "≥ 512", "unit": "µg/mL"}
    ]},
    {"molecule": "C[C@@H](O)[C@H]1C(=O)N2C(C(=O)O)=C(S[C@@H]3CN[C@H](C(=O)N(C)C)C3)[C@H](C)[C@H]12", "note": "[meropenem, Meropenem]", "values": [
      {"measurement": "MIC", "setting": "[7]", "value": 8, "unit": "µg/mL"},
      {"measurement": "MIC", "setting": "[8]; Klebsiella pneumoniae, liquid culture, 2×10^4 CFU/mL, 5 hours at 37° C., image analysis", "value": 4, "unit": "µg/mL"},
      {"measurement": "bacterial growth after 5 hours incubation", "setting": "[8]; at 2 and 1 mg/L", "value": "bacterial growth"},
      {"measurement": "bacterial growth after 5 hours incubation", "setting": "[8]; at a concentration ≥4 mg/L", "value": "did not grow"}
    ]},
    {"molecule": "Gentamicin", "values": [
      {"measurement": "bacterial growth after 5 hours incubation", "setting": "[9]; at 0.125 mg/L", "value": "bacterial growth"},
      {"measurement": "bacterial growth after 5 hours incubation", "setting": "[9]; at a concentration ≥0.25 mg/L", "value": "did not grow"},
      {"measurement": "MIC", "setting": "[9]; liquid culture, 2×10^4 CFU/mL, 5 hours at 37° C., image analysis", "value": 0.25, "unit": "µg/mL"},
      {"measurement": "bacterial growth after 5 hours incubation", "setting": "[10]; at 0.125 and 0.06 mg/L", "value": "growth"},
      {"measurement": "bacterial growth after 5 hours incubation", "setting": "[10]; at a concentration ≥0.25", "value": "did not grow"},
      {"measurement": "MIC", "setting": "[10]; blood culture bottle sample, 2×10^4 CFU/mL, 5 hours at 37° C., image analysis", "value": 0.25, "unit": "µg/mL"}
    ]}
  ]
}
